Test results from patent publication US4582824A, “Method for inhibiting activities of platelet activating factor” (Takeda Chemical Industries, Ltd., priority 1983, dated 1986).

Tests used:
[1] = test system: PAF-induced respiratory (airway) stenosis; test: PAF-inhibiting activity in respiratory stenosis; type: in vivo, guinea pig (Hartley); details: PAF 0.3 μg/kg i.v., control group pretreated with saline; mean±S.D., 6 cases
Description: Male and female Hartley strain guinea pigs weighing about 400 g were used. Under urethane anesthesia (1.5 g/kg, i.p.), each animal was immobilized in supine position and one shank of a tracheal cannula (of 4-shank type) was inserted into the airway, with two of the remaining three shanks being connected to a Harvard Apparatus rodent respirator and the remaining one shank to a bronchospasm transducer (Ugo-basile Model 7020). At an air volume of 5 to 7 ml per cycle, an air supply frequency of 70 times/min. and a lung loading pressure of 10 cm H2 O, the volume of overflowing air was recorded through the transducer on a rectigraph (Rectigraph-8S, Sanei Sokki K.K.). After gallamine triethodide (1 mg/kg, i.v.) treatment, […] of histamine 2HCl was intravenously administered to examine the response of the animal. When 0.3 μg/kg of PAF was intravenously administered to control group intravenously pretreated with physiological saline, a miximum airway stenosis was noted after 30 minutes and the amount of stenosis taking a complete stenosis as 100% was 72.8±4.3 (mean±S.D., for 6 cases). The compound of Production Example 2, when intravenously administered 2 minutes before at the dose levels of 0.3 and 1 mg/kg, suppressed the above response by PAF by 49% and 82%, respectively.

[2] = test system: respiratory stenosis; details: compared with all the known compounds; cited from earlier work
[3] = test system: platelet aggregation; details: compared with ADP and TXA2; cited from earlier work
[4] = test system: circulatory shock due to PAF; test: Inhibitory activity against circulatory shock due to PAF in anesthetized dogs; type: in vivo, mongrel dogs; details: for CO (percent of value prior to PAF) / CoF (percent of value prior to PAF) / DBP (percent of value prior to PAF) / HR (percent of value prior to PAF) / LVP (percent of value prior to PAF) / MBP (percent of value prior to PAF) / SBP (percent of value prior to PAF) / max dp/dt (row head is a drawing; percent of value prior to PAF): PAF 1.0 μg/kg i.v. alone
Description: Male and female mongrel dogs weighing 9 to 13 kg were used. Under pentobarital sodium ([…], i.v.) anesthesia and supportive respiration, a thoracotomy was performed at the left fourth interspace. The origin of the left coronary circumflex and the aortic arch were released, an electromagnetic probe was attached to each, and the coronary blood flow (CoF) and cardiac output (CO) were measured. Moreover, a polyethylene cannula was inserted from the apex of the heart into the left ventricle and the left ventricular pressure (LVP) was measured by means of a pressure transducer. In addition, its first-order differential dp/dt was determined by way of a differential circuit. The mean blood pressure (MBP) was continuously recorded on an ink-writing polygraph through a pressure transducer via a cannula inserted into the right femoral artery and the heart rate (HR) was similarly recorded via a tachometer driven by mean blood pressure pulse waves. PAF and the compound of Production Example 2 were respectively dissolved in physiological saline and administered via a cannula into the left femoral vein. After 1.0 μg/kg of PAF was intravenously administered and the respective parameters recovered to normal, the compound of Production Example 2 (10 mg/kg) was intravenously administered. After 10 minutes, 1.0 μg/kg of PAF was intravenously administered to estimate the anti-PAF activity of the compound of Production Example 2. All values are in percents relative to the values prior to PAF administration.

Q: With `CCCCCCCCCCCCCCCCOCC(COP(=O)([O-])OCC[N+](C)(C)C)OC(C)=O` (stereo not drawn) [PAF, 1-O-alkyl-2-acetyl-sn-glyceryl-3-phosphorylcholine] as the compound, how does the “amount of stenosis taking a complete stenosis as 100%” value [1] read?
A: 72.8±4.3%

Q: What about the “activity in respiratory stenosis assay in words” value [2] of the same compound?
A: highest activity of all the known compounds

Q: And the “platelet aggregation activity in words” value [3]?
A: greater activity at lower concentrations

Q: What about the “decrease of CO in words” value ([4]; PAF 1.0 μg/kg i.v.) of the same compound?
A: particularly remarkable

Q: What about the “heart rate (HR) change in words” value ([4]; PAF 1.0 μg/kg i.v.) of the same compound?
A: only a slight decrease

Q: What about the “time before the preadministration values were recovered” value ([4]; PAF 1.0 μg/kg i.v.) of the same compound?
A: 60 min

Q: And the “CO (percent of value prior to PAF)” value ([4]; 0.5 min)?
A: 93 ± 13%

Q: And the “CoF (percent of value prior to PAF)” value ([4]; 0.5 min)?
A: 75 ± 3%

Q: What about the “DBP (percent of value prior to PAF)” value ([4]; 0.5 min) of the same compound?
A: 58 ± 3%

Q: And the “HR (percent of value prior to PAF)” value ([4]; 0.5 min)?
A: 96 ± 8%

Q: What about the “LVP (percent of value prior to PAF)” value ([4]; 0.5 min) of the same compound?
A: 81 ± 1%

Q: What about the “MBP (percent of value prior to PAF)” value ([4]; 0.5 min) of the same compound?
A: 62 ± 4%

Q: What about the “SBP (percent of value prior to PAF)” value ([4]; 0.5 min) of the same compound?
A: 70 ± 5%

Q: What about the “max dp/dt (row head is a drawing; percent of value prior to PAF)” value ([4]; 0.5 min) of the same compound?
A: 76 ± 8%

Q: And the “CO (percent of value prior to PAF)” value ([4]; 1 min)?
A: 33 ± 3%

Q: And the “CoF (percent of value prior to PAF)” value ([4]; 1 min)?
A: 77 ± 3%

Q: What about the “DBP (percent of value prior to PAF)” value ([4]; 1 min) of the same compound?
A: 47 ± 3%

Q: What about the “HR (percent of value prior to PAF)” value ([4]; 1 min) of the same compound?
A: 95 ± 8%

Q: And the “LVP (percent of value prior to PAF)” value ([4]; 1 min)?
A: 59 ± 7%

Q: And the “MBP (percent of value prior to PAF)” value ([4]; 1 min)?
A: 49 ± 5%

Q: And the “SBP (percent of value prior to PAF)” value ([4]; 1 min)?
A: 52 ± 5%

Q: And the “max dp/dt (row head is a drawing; percent of value prior to PAF)” value ([4]; 1 min)?
A: 50 ± 3%

Q: What about the “CO (percent of value prior to PAF)” value ([4]; 5 min) of the same compound?
A: 35 ± 7%

Q: And the “CoF (percent of value prior to PAF)” value ([4]; 5 min)?
A: 56 ± 2%

Q: What about the “DBP (percent of value prior to PAF)” value ([4]; 5 min) of the same compound?
A: 67 ± 12%

Q: And the “HR (percent of value prior to PAF)” value ([4]; 5 min)?
A: 89 ± 3%

Q: What about the “LVP (percent of value prior to PAF)” value ([4]; 5 min) of the same compound?
A: 62 ± 6%

Q: What about the “MBP (percent of value prior to PAF)” value ([4]; 5 min) of the same compound?
A: 63 ± 11%

Q: What about the “SBP (percent of value prior to PAF)” value ([4]; 5 min) of the same compound?
A: 59 ± 9%

Q: What about the “max dp/dt (row head is a drawing; percent of value prior to PAF)” value ([4]; 5 min) of the same compound?
A: 54 ± 7%
